In patent US6887873B2, “Triazine derivatives and their application as antitelomerase agents” (Aventis Pharma S.A., priority 2001, dated 2005):
Like-named read-outs stand apart in the source and are kept apart here.

Tests used:
[1] = system: G-quadruplex of oligonucleotide GGGTTAGGGTTAGGGTTAGGG (3.5 repeats of the human telomereic motif); assay: G-quadruplex stabilizing activity, fluorescence Tm (FAM+DABCYL oligonucleotide); assay type: binding
Outline: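 FAM/DABCYL-labelled telomeric oligonucleotide (0.2 μM strand) in 10 mM sodium cacodylate pH 7.6 with 0.1 M LiCl (or NaCl) was annealed, then incubated ≥1 h at 20 °C with compound at 1 μM final. Samples were heated 20→80 °C, with excitation at 470 nm and emission at 515/588 nm. Tm is the 515 nm emission midpoint.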

A549 cells = assay: Cytotoxic activity on human tumour line A549, neutral red, 96 hours; assay type: cell-based; settings: read-out: Cytotox. A549 IC50
Procedure: The cytotoxic biological activity on human tumour lines is determined according to the following experimental protocol:
The human cell lines A549 are obtained from ATCC (American Type Culture Collection, Rockville, USA). The A549 cells are cultured in a layer in a culture flask in RPMI 1640 medium containing L-glutamine at 2 mM, penicillin 200 U/ml, streptomycin 200 μg/ml and supplemented with 10% heat-inactivated foetal calf serum. The KB cells are cultured in a layer in a culture flask in Dulbelco's medium containing L-glutamine at 2 mM, penicillin 200 U/ml, streptomycin 200 μg/ml and supplemented with 10% heat-inactivated foetal calf serum.
The cells at the exponential growth phase are trypsinized, washed in 1×PBS and are inoculated in 96-well microplates (Costar) in an amount of 4×10^4 cells/ml for A549 and of 1.5×10^4 cells/ml (0.2 ml/well) and then incubated for 96 hours in the presence of variable concentrations of product to be studied (10, 1, 0.1 and 0.01 μM, each point in quadruplicate). 16 hours before the end of the incubation, 0.02% final of neutral red is added to each well. At the end of the incubation, the cells are washed with 1×PBS and lysed with 1% sodium lauryl sulphate. The cellular incorporation of the dye, which reflects cellular growth, is evaluated by spectro-photometry at a wavelength of 540 nm for each sample with the aid of a Dynatech MR5000 reading apparatus.
For each compound concentration tested, the results are expressed as percentage of inhibition of cellular growth and calculated from the untreated control and the culture medium free of cells (blank) according to the following formula: (compound value−blank value/cell control value−blank value)×100.
The concentration of compound inducing a 50% inhibition of growth (IC50) is determined with the aid of a semilogarithmic graphical representation of the inhibition values obtained as a function of each of the compound concentrations tested.
A compound is considered to be active as cytotoxic agent if the concentration inhibiting the growth of the tumour cells tested by 50% is in particular less than 10 μM.

Question: Which results are given for `Cc1cc(N(C)C)c2cc(Nc3nc(NCC[N+](C)(C)C)nc(Nc4ccc5nc(C)cc(N(C)C)c5c4)n3)ccc2n1` [Example 142]?
Answer: G4 delta Tm [1]: 9.5 °C; IC50 (A549 cells; Homo sapiens, A549, A549): 1560 nM

Question: For `Cc1cc(N(C)C)c2cc(Nc3nc(Nc4ccc5nc(C)cc(N(C)C)c5c4)nc(N4CCN(C5CCCC5)CC4)n3)ccc2n1` [Example 143], which “G4 delta Tm” value [1] is on record?
Answer: 13 °C

Question: And the IC50 (A549 cells; Homo sapiens, A549, A549)?
Answer: 520 nM

Question: For `Cc1cc(N(C)C)c2cc(Nc3nc(Nc4ccc5nc(C)cc(N(C)C)c5c4)nc(N4CCN(c5ccncc5)CC4)n3)ccc2n1` [Example 144, 2,4-bis(4-dimethylamino-2-methylquinolin-6-yl)amino-6-[1-(pyridin-4-yl)piperazin-4-yl]-[1,3,5]triazine], which “G4 delta Tm” value [1] is on record?
Answer: 22.5 °C

Question: And the IC50 (A549 cells; Homo sapiens, A549, A549)?
Answer: 40 nM

Question: Which results are given for `Cc1cc(N(C)C)c2cc(Nc3nc(NCc4ccncc4)nc(Nc4ccc5nc(C)cc(N(C)C)c5c4)n3)ccc2n1` [Example 145]?
Answer: G4 delta Tm [1]: 5 °C; IC50 (A549 cells; A549): 420 nM

Question: With `CCN(CCN(C)C)c1nc(Nc2ccc3nc(C)cc(N(C)C)c3c2)nc(Nc2ccc3nc(C)cc(N(C)C)c3c2)n1` [Example 146] as the compound, how does the “G4 delta Tm” value [1] read?
Answer: 6 °C

Question: What about the IC50 (A549 cells; Homo sapiens, A549, A549) of the same compound?
Answer: 175 nM

Question: How did the “G4 delta Tm” value [1] turn out when `CC1=NCCN1c1nc(Nc2ccc3nc(C)cc(N(C)C)c3c2)nc(Nc2ccc3nc(C)cc(N(C)C)c3c2)n1` [Example 148] was run?
Answer: 12 °C

Question: And the IC50 (A549 cells; Homo sapiens, A549, A549)?
Answer: 1500 nM

Question: How did the “G4 delta Tm” value [1] turn out when `Cc1cc(N(C)C)c2cc(Nc3nc(Nc4ccc5nc(C)cc(N(C)C)c5c4)nc(N4CCC[C@H]4CN4CCCC4)n3)ccc2n1` [Example 149, 2,4-bis(4-dimethylamino-2-methylquinolin-6-yl)amino-6-[2(S)-(pyrrolidin-1-yl)methylpyrrolidin-1-yl]-[1,3,5]triazine] was run?
Answer: 12.5 °C

Question: And the IC50 (A549 cells; Homo sapiens, A549, A549)?
Answer: 96 nM

Question: With `CC(=O)NCCNc1nc(Nc2ccc3nc(C)cc(N(C)C)c3c2)nc(Nc2ccc3nc(C)cc(N(C)C)c3c2)n1` [Example 150] as the compound, how does the “G4 delta Tm” value [1] read?
Answer: 6.5 °C

Question: What about the IC50 (A549 cells; Homo sapiens, A549, A549) of the same compound?
Answer: 2470 nM
